For orientation: pIC50 means the negative decadic logarithm of the IC50, by convention in mol/L.

pIC50: −log10 of the molar value.

The results in this text go back to BindingDB's records for doi:10.1021/acs.jmedchem.9b01562 (Lupin, 2019).

Assay [1] can be described thus: Inhibition of NS5A in HCV genotype 2a infected in human Huh7.5/J6/JFH1/EMCVIRES/hRlucNeo cells assessed as inhibition of replicon levels incubated for 72 hrs by luciferase reporter gene assay. Background: Replicon systems follow genome replication, usually without infectious particles.
The nature of assay [2]: Inhibition of NS5A in HCV genotype 1b infected in human HuH7.5/Con1/SG-Neo(I)-hRluc2aUb cells assessed as inhibition of replicon levels incubated for 72 hrs by luciferase reporter gene assay.
Assay [3] can be described thus: Inhibition of NS5A in HCV genotype 4a infected in human HuH7.5/Con1/SG-Neo(I)-hRluc2aUb cells assessed as inhibition of replicon levels incubated for 72 hrs by luciferase reporter gene assay.
Assay [4] can be described thus: Inhibition of NS5A in HCV genotype 3a infected in human HuH7.5/Con1/SG-Neo(I)-hRluc2aUb cells assessed as inhibition of replicon levels incubated for 72 hrs by luciferase reporter gene assay.
The nature of assay [5]: Inhibition of NS5A in HCV genotype 1a infected in human HuH7.5/Con1/SG-Neo(I)-hRluc2aUb cells assessed as inhibition of replicon levels incubated for 72 hrs by luciferase reporter gene assay.
Assay [6] in a line: Inhibition of NS5A in HCV genotype 6a infected in human HuH7.5/Con1/SG-Neo(I)-hRluc2aUb cells assessed as inhibition of replicon levels incubated for 72 hrs by luciferase reporter gene assay.

With `COC(=O)N[C@H](C(=O)N1CCC[C@H]1c1ncc(-c2ccc3c(ccc4cc(-c5cnc([C@@H]6[C@@H]7CC[C@@H](C7)N6C(=O)[C@@H](NC(=O)OC)C(C)C)[nH]5)sc43)c2)[nH]1)C(C)C`, the pIC50 in assay [1] was 10.96; in assay [2], 10.89.

Regarding `COC(=O)N[C@H](C(=O)N1CCC[C@H]1c1ncc(-c2ccc3c(c2)OCCCCOc2cc(-c4cnc([C@@H]5CCCN5C(=O)[C@@H](NC(=O)OC)C(C)C)[nH]4)ccc2-3)[nH]1)C(C)C`, the pIC50 in assay [1] is 8.89; in assay [2], 9.71.

`COC(=O)N[C@H](C(=O)N1CCC[C@H]1c1ncc(-c2ccc3c(ccc4cc(-c5cnc([C@@H]6CCCN6C(=O)[C@@H](NC(=O)OC)C(C)C)[nH]5)sc43)c2)[nH]1)C(C)C`: the pIC50 in assay [3] is 11.52; in assay [4], 10.33; in assay [5] it was 10.57; in assay [6], 10.55; in assay [1] it was 11.30; in assay [2], 10.92.

For `COC(=O)N[C@H](C(=O)N1CCC[C@H]1c1ncc(-c2ccc(N3CCN(c4ccc(-c5cnc([C@@H]6CCCN6C(=O)[C@@H](NC(=O)OC)C(C)C)[nH]5)cc4)CC3)cc2)[nH]1)C(C)C`, the pIC50 in assay [1] was 8.34; in assay [2], 9.58.

Regarding `COC(=O)N[C@H](C(=O)N1CCC[C@H]1c1ncc(-c2ccc3c(c2)OCCc2cc(-c4cnc([C@@H]5CCCN5C(=O)[C@@H](NC(=O)OC)C(C)C)[nH]4)sc2-3)[nH]1)C(C)C`, the pIC50 in assay [1] was 7.97; in assay [2] it was 10.66.

Regarding `COC(=O)N[C@H](C(=O)N1CCC[C@H]1c1ncc(-c2ccc3c(c2)CCCc2cc(-c4cnc([C@@H]5CCCN5C(=O)[C@@H](NC(=O)OC)C(C)C)[nH]4)sc2-3)[nH]1)C(C)C`, the pIC50 was 9.10 in assay [1] and 10.68 in assay [2].

With `COC(=O)N[C@H](C(=O)N1CCC[C@H]1c1ncc(-c2ccc3c(c2)CC2(C3)Cc3ccc(-c4cnc([C@@H]5CCCN5C(=O)[C@@H](NC(=O)OC)C(C)C)[nH]4)cc3C2)[nH]1)C(C)C`, the pIC50 in assay [1] was 7.57; in assay [2], 10.10.

On to `COC(=O)N[C@H](C(=O)N1CCC[C@H]1c1ncc(-c2ccc3c(c2)OCCCOc2cc(-c4cnc([C@@H]5CCCN5C(=O)[C@@H](NC(=O)OC)C(C)C)[nH]4)ccc2-3)[nH]1)C(C)C`, for which the pIC50 is 9.50 in assay [1] and 9.54 in assay [2].

Take `COC(=O)N[C@H](C(=O)N1CCC[C@H]1c1ncc(-c2ccc(N3CC4CC3CN4c3ccc(-c4cnc([C@@H]5CCCN5C(=O)[C@@H](NC(=O)OC)C(C)C)[nH]4)cc3)cc2)[nH]1)C(C)C`: the pIC50 in assay [1] is 8.40; in assay [2], 8.43.

Regarding `COC(=O)N[C@H](C(=O)N1CCC[C@H]1c1nc(Cl)c(-c2ccc3c(c2)OCC(C)(C)COc2cc(-c4[nH]c([C@@H]5CCCN5C(=O)[C@@H](NC(=O)OC)C(C)C)nc4Cl)ccc2-3)[nH]1)C(C)C`, the pIC50 is 9.49 in assay [1] and 11.40 in assay [2].

As for `COC(=O)N[C@H](C(=O)N1CCC[C@H]1c1ncc(-c2ccc(-c3ccc(-c4ccc(-c5cnc([C@@H]6CCCN6C(=O)[C@@H](NC(=O)OC)C(C)C)[nH]5)cc4)cc3)cc2)[nH]1)C(C)C`, the negative logarithm of the IC50 (pIC50) in assay [1] was 7.59; in assay [2], 9.87.

Take `COC(=O)N[C@H](C(=O)N1CCC[C@H]1c1ncc(-c2ccc3c(c2)CCc2cc(-c4cnc([C@@H]5CCCN5C(=O)[C@@H](NC(=O)OC)C(C)C)[nH]4)sc2-3)[nH]1)C(C)C`: the pIC50 in assay [1] and in assay [2] was 10.68 in each case.

As to `COC(=O)N[C@H](C(=O)N1CCC[C@H]1c1ncc(-c2ccc3c(c2)OCc2cc(-c4cnc([C@@H]5CCCN5C(=O)[C@@H](NC(=O)OC)C(C)C)[nH]4)sc2-3)[nH]1)C(C)C`, the pIC50 is 11.05 in assay [3]; 10.12 in assay [4]; 10.51 in assay [5]; 10.26 in assay [6]; 10.52 in assay [1]; 10.70 in assay [2].

As to `COC(=O)N[C@H](C(=O)N1[C@H]2CC[C@H](C2)[C@H]1c1ncc(-c2ccc3c(ccc4cc(-c5cnc([C@@H]6[C@@H]7CC[C@@H](C7)N6C(=O)[C@@H](NC(=O)OC)C(C)C)[nH]5)sc43)c2)[nH]1)C(C)C`, the pIC50 in assay [1] is 9.47; in assay [2], 10.68.

Regarding `COC(=O)N[C@H](C(=O)N1CCC[C@H]1c1ncc(-c2ccc(C34CCC(c5ccc(-c6cnc([C@@H]7CCCN7C(=O)[C@@H](NC(=O)OC)C(C)C)[nH]6)cc5)(CC3)CC4)cc2)[nH]1)C(C)C`, the pIC50 is 7.47 in assay [1] and 9.51 in assay [2].

With `COC(=O)N[C@H](C(=O)N1CCC[C@H]1c1nc(Cl)c(-c2ccc3c(c2)OCCc2cc(-c4[nH]c([C@@H]5CCCN5C(=O)[C@@H](NC(=O)OC)C(C)C)nc4Cl)sc2-3)[nH]1)C(C)C`, the pIC50 in assay [1] was 8.89; in assay [2], 11.10.

On to `CCc1nc([C@@H]2CCCN2C(=O)[C@@H](NC(=O)OC)C(C)C)[nH]c1-c1ccc2c(c1)OCC(C)(C)COc1cc(-c3[nH]c([C@@H]4CCCN4C(=O)[C@@H](NC(=O)OC)C(C)C)nc3CC)ccc1-2`, for which the figures for the pIC50 in assay [1] and in assay [2] were 7.10 and 9.66, respectively.

Regarding `COC(=O)N[C@H](C(=O)N1CCC[C@H]1c1ncc(-c2ccc3c(c2)OCC(C)(C)COc2cc(-c4[nH]c([C@@H]5CCCN5C(=O)[C@@H](NC(=O)OC)C(C)C)nc4Cl)ccc2-3)[nH]1)C(C)C`, the figures for the pIC50 in assay [1] and in assay [2] were 9.17 and 10.68, respectively.

With `COC(=O)N[C@H](C(=O)N1CCC[C@H]1c1nc(Cl)c(-c2ccc3c(c2)OCCCOc2cc(-c4[nH]c([C@@H]5CCCN5C(=O)[C@@H](NC(=O)OC)C(C)C)nc4Cl)ccc2-3)[nH]1)C(C)C`, the pIC50 in assay [1] is 10.51; in assay [2], 10.72.

Turning to `COC(=O)N[C@H](C(=O)N1CCC[C@H]1c1nc(Cl)c(-c2ccc3c(c2)CCCc2cc(-c4[nH]c([C@@H]5CCCN5C(=O)[C@@H](NC(=O)OC)C(C)C)nc4Cl)sc2-3)[nH]1)C(C)C`, the pIC50 in assay [1] was 10.28; in assay [2], 10.70.

For the molecule `COC(=O)N[C@H](C(=O)N1CCC[C@H]1c1ncc(-c2ccc3c(c2)OCCCOc2cc(-c4[nH]c([C@@H]5CCCN5C(=O)[C@@H](NC(=O)OC)C(C)C)nc4Cl)ccc2-3)[nH]1)C(C)C`, the pIC50 is 10.28 in assay [1] and 10.29 in assay [2].

Consider `COC(=O)N[C@H](C(=O)N1CCC[C@H]1c1ncc(-c2ccc3c(c2)OCC(C)(C)COc2cc(-c4cnc([C@@H]5CCCN5C(=O)[C@@H](NC(=O)OC)C(C)C)[nH]4)ccc2-3)[nH]1)C(C)C`, for which the pIC50 in assay [1] was 9.75; in assay [2] it was 10.16.

On to `COC(=O)N[C@H](C(=O)N1CCC[C@H]1c1nc(C2CC2)c(-c2ccc3c(c2)OCC(C)(C)COc2cc(-c4[nH]c([C@@H]5CCCN5C(=O)[C@@H](NC(=O)OC)C(C)C)nc4C4CC4)ccc2-3)[nH]1)C(C)C`, for which the pIC50 was 8.17 in assay [1] and 9.94 in assay [2].

As for `COC(=O)N[C@H](C(=O)N1CCC[C@H]1c1ncc(-c2ccc3c(c2)OCC2(CC2)COc2cc(-c4cnc([C@@H]5CCCN5C(=O)[C@@H](NC(=O)OC)C(C)C)[nH]4)ccc2-3)[nH]1)C(C)C`, the pIC50 in assay [1] was 8.74; in assay [2], 9.87.

With `COC(=O)N[C@H](C(=O)N1CCC[C@H]1c1ncc(-c2ccc3c(c2)CCc2cc(-c4cnc([C@@H]5CCCN5C(=O)[C@@H](NC(=O)OC)C(C)C)[nH]4)ccc2-3)[nH]1)C(C)C`, the pIC50 in assay [1] was 11.05; in assay [2] it was 10.82.

As to `COC(=O)N[C@H](C(=O)N1CCC[C@H]1c1nc(-c2ccc(-c3ccc(-c4c[nH]c([C@@H]5CCCN5C(=O)[C@@H](NC(=O)OC)C(C)C)n4)cc3)cc2)c[nH]1)C(C)C` [BMS-790052], the figures for the pIC50 in assay [1] and in assay [2] were 11.05 and 10.64, respectively.

Regarding `COC(=O)N[C@H](C(=O)N1CCC[C@H]1c1ncc(-c2ccc3c(ccc4sc(-c5cnc([C@@H]6CCCN6C(=O)[C@@H](NC(=O)OC)C(C)C)[nH]5)nc43)c2)[nH]1)C(C)C`, the pIC50 in assay [2] was 10.14.
